# Source: patent publication US20210053957A1, “HERBICIDAL COMPOUNDS” (SYNGENTA PARTICIPATIONS AG, priority 2018, published 2021)
# Assays:
# Assay in all cases: Post-emergence efficacy, glasshouse spray test
# Type in all cases: in vivo
# [1] = test system: Euphorbia heterophylla (EPHHL); settings: Euphorbia heterophylla, post-emergence, 312 h; Application Rate 500 g/Ha; evaluated after 13 days; read-out: Control of weed species after post-emergence application, EPHHL (100=total damage to plant; 0=no damage to plant)
# How it was run: (§1)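 Pot-grown plants sprayed 14 days after sowing, held in glasshouse at 24/16° C day/night, 14 h light, 65% humidity. Active formulated in acetone plus IF50 as 50 g/l stock, diluted in 0.25% or 1% Empicol ESC70 + 1% ammonium sulphate. Damage scored after 13 days, 0 (none) to 100 (total).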
# Setaia fabei (SETFA) = settings: Setaria faberi, post-emergence, 312 h; Application Rate 500 g/Ha; evaluated after 13 days; read-out: Control of weed species after post-emergence application, SETFA (100=total damage to plant; 0=no damage to plant)
# How it was run: as §1
# [2] = test system: Echinochloa crus-galli (ECHCG); settings: Echinochloa crus-galli, post-emergence, 312 h; Application Rate 500 g/Ha; evaluated after 13 days; read-out: Control of weed species after post-emergence application, ECHCG (100=total damage to plant; 0=no damage to plant)
# How it was run: as §1
# [3] = test system: Ipomoea hederacea (IPOHE); settings: Ipomoea hederacea, post-emergence, 312 h; Application Rate 500 g/Ha; evaluated after 13 days; read-out: Control of weed species after post-emergence application, IPOHE (100=total damage to plant; 0=no damage to plant)
# How it was run: as §1
# Eleusine indica (ELEIN) = settings: Eleusine indica, post-emergence, 312 h; Application Rate 500 g/Ha; evaluated after 13 days; read-out: Control of weed species after post-emergence application, ELEIN (100=total damage to plant; 0=no damage to plant)
# How it was run: as §1
# Lolium perenne (LOLPE) = settings: Lolium perenne, post-emergence, 312 h; Application Rate 500 g/Ha; evaluated after 13 days; read-out: Control of weed species after post-emergence application, LOLPE (100=total damage to plant; 0=no damage to plant)
# How it was run: as §1
# [4] = test system: Chenopodium album (CHEAL); settings: Chenopodium album, post-emergence, 312 h; Application Rate 500 g/Ha; evaluated after 13 days; read-out: Control of weed species after post-emergence application, CHEAL (100=total damage to plant; 0=no damage to plant)
# How it was run: as §1
# [5] = test system: Digitaria sanguinalis (DIGSA); settings: Digitaria sanguinalis, post-emergence, 312 h; Application Rate 500 g/Ha; evaluated after 13 days; read-out: Control of weed species after post-emergence application, DIGSA (100=total damage to plant; 0=no damage to plant)
# How it was run: as §1
# [6] = test system: Amaranthus palmeri (AMAPA); settings: Amaranthus palmeri, post-emergence, 312 h; Application Rate 500 g/Ha; evaluated after 13 days; read-out: Control of weed species after post-emergence application, AMAPA (100=total damage to plant; 0=no damage to plant)
# How it was run: as §1
SMILES,pest or weed control at 500 g/ha [1],pest or weed control at 500 g/ha (Setaia fabei (SETFA)),pest or weed control at 500 g/ha [2],pest or weed control at 500 g/ha [3],pest or weed control at 500 g/ha (Eleusine indica (ELEIN)),pest or weed control at 500 g/ha (Lolium perenne (LOLPE)),pest or weed control at 500 g/ha [4],pest or weed control at 500 g/ha [5],pest or weed control at 500 g/ha [6]
Cn1nc(-c2cc[n+](CCS(=O)(=O)[O-])nc2)cc1C(F)(F)F [Compound A29],20%,20%,20%,20%,30%,20%,50%,30%,20%
Cn1nc(C(F)(F)F)cc1-c1cc[n+](CCS(=O)(=O)[O-])nc1 [Compound A30],40%,40%,20%,20%,40%,50%,40%,30%,80%
"Cn1ccnc1-c1cc[n+](CCC(=O)O)nc1 [Compound A31, 3-[4-(1-methylimidazol-2-yl)pyridazin-1-ium-1-yl]propanoic acid; 2,2,2-trifluoroacetate]",30%,60%,40%,10%,50%,20%,20%,50%,30%
O=C(O)CC[n+]1ccc(-c2ncco2)cn1 [Compound A32],80%,80%,90%,60%,90%,40%,90%,90%,80%
COc1cc(-c2cc[n+](CCC(=O)O)nc2)sn1 [Compound A33],80%,30%,20%,10%,50%,30%,70%,70%,100%
COc1cc(-c2cc[n+](CCS(=O)(=O)[O-])nc2)sn1 [Compound A34],30%,40%,50%,20%,20%,20%,20%,30%,60%
Cc1cc(-c2cc[n+](CCS(=O)(=O)[O-])nc2)sn1 [Compound A35],90%,60%,50%,50%,70%,70%,100%,50%,100%
O=S(=O)([O-])CC[n+]1ccc(-c2cccs2)cn1 [Compound A36],30%,10%,0%,30%,20%,20%,60%,10%,100%
O=C(O)CC[n+]1ccc(-c2nnc[nH]2)cn1 [Compound A37],30%,10%,10%,20%,10%,0%,50%,10%,30%
O=S(=O)([O-])CC[n+]1ccc(-c2ncn[nH]2)cn1 [Compound A38],20%,10%,10%,20%,0%,10%,30%,20%,20%
Cn1cnc(-c2cc[n+](CCS(=O)(=O)[O-])nc2)n1 [Compound A39],90%,90%,80%,80%,80%,70%,90%,90%,90%
Cc1coc(-c2cc[n+](CCS(=O)(=O)[O-])nc2)n1 [Compound A40],100%,80%,80%,90%,100%,80%,100%,80%,100%
O=S(=O)([O-])CC[n+]1ccc(-c2ccoc2)cn1 [Compound A42],30%,10%,10%,20%,20%,0%,40%,20%,20%
O=C(O)CC[n+]1ccc(-c2ccoc2)cn1 [Compound A43],80%,10%,10%,20%,10%,0%,90%,20%,100%
CNc1nnc(-c2cc[n+](CCS(=O)(=O)[O-])nc2)s1 [Compound A45],90%,70%,40%,20%,70%,70%,80%,50%,100%
Nc1nnc(-c2cc[n+](CCC(=O)O)nc2)s1 [Compound A47],100%,90%,90%,30%,100%,100%,100%,90%,100%
Cn1nncc1-c1cc[n+](CCC(=O)O)nc1 [Compound A48],90%,90%,70%,90%,70%,40%,90%,100%,100%
Cn1nncc1-c1cc[n+](CCS(=O)(=O)[O-])nc1 [Compound A49],90%,60%,60%,70%,60%,40%,100%,70%,100%
